Here are results for three molecules from article PMC11488100, “PET imaging of CXCR4 expression using [^18F]AlF-NOTA-QHY-04 for hematologic malignancy and solid tumors” (Theranostics, 2024).

Molecules are shown by their SMILES. Bridge positions count the residues as written; N and C are the ends. Square brackets hold non-standard residues; d marks the D form. Peptide text beside a SMILES is read from it. * marks the point of attachment. NOTA = O=C(O)CN1CCN(CC(=O)O)CCN(CC(=O)*)CC1; 2Nal = N[C@@H](Cc1ccc2ccccc2c1)C(=O)O; Pen = CC(C)(S)[C@H](N)C(=O)O; 4Amb = NCc1ccc(C(=O)O)cc1; Ahx = NCCCCCC(=O)O

The target in data set [1] is T1, recombinant CXCR4 protein (Homo sapiens, UniProt P61073).
T1 construct: purchased Novoprotein C16M
The experiment in a line: Biolayer interferometry (BLI) binding assay. As to conditions: BLI Octet Red96, biotinylated CXCR4 on SSA biosensors, 30 °C, HBS-P buffer pH 7.4, 0.0313-1 μM, 1:1 binding model, global fit. The method, then:
The in vitro and in vivo stability of [^18F]AlF-NOTA-QHY-04 were evaluated by radio-HPLC to examine the RCP after different incubation periods. The binding affinity of the unlabeled precursor to CXCR4 was measured using the biolayer interferometry Octet Red96 system (PALL ForteBio, USA). The details are supplied in the supplemental materials. […]
human serum albumin solution were evaluated by radio-HPLC to examine the radiochemical purity after different incubation periods. For the saline study, 200 μL of [18F]AlF-NOTA-QHY-04 (0.74–3.70 MBq) was incubated at 37°C with 800 μL of saline for 1 h, 3 h and 6 h respectively, and then directly evaluated by radio -HPLC. […] Finally, the supernatant was collected and passed through a 0.22 μm membrane filter (Millipore, USA) and analyzed by radio-HPLC. […]
The processed blood supernatants and diluted urine samples were collected and passed through a 0.22 μm membrane filter (Millipore, USA) and analyzed by radio-HPLC. […]
and 1 μM NOTA-QHY-04 sample) was prepared and flowed. […] Prior to fitting, the data were baseline-subtracted and analyzed using a 1:1 binding model and the ForteBio data analysis software. Mean Kd value was determined by applying a global fit to all the data. […]
In general terms: BLI is a label-free optical method that tracks binding on a fibre tip over time.

A short description of data set [2]: [18F]FDG PET/CT imaging in cancer patients. It counts as in vivo, human. The source says:
Potential eligible patients with newly diagnosed tumor were recruited from Shandong Cancer Hospital and institute from November 2022 to December 2023. A total of 55 patients including 8 tumor types were represented in this study (diffuse large B-cell lymphoma (DLBCL), n = 6; SCLC, n = 30; non-small cell lung cancer (NSCLC), n = 4; triple-negative breast cancer (TNBC), n = 3; pancreatic carcinoma, n = 3; glioma, n = 7; hepatocellular carcinoma (HCC), n = 1; and colorectal carcinoma (CRC), n = 1). The [^18F]AlF-NOTA-QHY-04 imaging study in patients was approved by the Institutional Review Board of Shandong Cancer Hospital and Institute (no. SDZLEC2023-256-02), and the patients provided their informed consent before inclusion in this study. In this prospective observational study, [^18F]AlF-NOTA-QHY-04 PET/CT scans should not affect the normal process of routine examinations and treatment as usual. Patients were enrolled according to the following criteria: (1) newly diagnosed cancer patients with visible tumors on conventional imaging; (2) histopathologically confirmed diagnosis; (3) age ≥ 18 years; (4) Eastern Cooperative Oncology Group (ECOG) performance status score of 0-2; (5) no prior cancer-directed therapy; (6) ability to undergo [^18F]AlF-NOTA-QHY-04 PET/CT scanning before treatment initiation. Specifically, regarding histological confirmation, we followed the standard clinical practice guidelines for each type of cancer [21]-[26], and provided detailed descriptions of our approach for obtaining histological evidence in the supplemental materials. All patients included in this study were treatment-naïve at the time of [^18F]AlF-NOTA-QHY-04 PET/CT imaging, to ensure that CXCR4 expression levels were not altered by treatments. PET/CT scans were performed within one week of pathological confirmation and carefully coordinated with the patient's clinical teams to avoid any delays in the initiation of treatment. Seven patients from them also underwent [^18F]FDG PET/CT scan. These patients fasted for at least 6 hours before [^18F]FDG PET/CT imaging. The methods for PET/CT scanning and image analysis were the same as previously reported, and detailed in the supplemental materials.
pathologists following standard diagnostic criteria, including routine H&E staining and
relevant immunohistochemical analyses. Histological confirmation was completed before
patients underwent [18F]AlF-NOTA-QHY-04 PET/CT imaging to ensure an accurate
correlation between imaging findings and tumor characteristics.
All the PET/CT scans in patients were acquired through an integrated in -line PET/CT
system (GEMINI TF Big Bore, Philips Healthcare, USA) at 60 min after intravenous
administration of 4.81 MBq/kg [18F]AlF-NOTA-QHY-04 or [18F]FDG. The
medical information system (Beijing Mozi Healthcare Technology Co., Ltd., Beijing,
China). ROIs were drawn on the transaxial images , and the maximum, mean, and peak
standard uptake value (SUV max, SUVmean, SUVpeak) were calculated automatically and used
for measuring the uptake of [18F]AlF-NOTA-QHY-04 by malignant tissues. In PET imaging
of brain tumors, T/N (tumor-to-normal brain ratio) was calculated according to the ratio of
SUVmax of tumor to SUVmean of the contralateral normal brain tissue. Two experienced
nuclear medicine physicians unaware of the patients’ clinical history analyzed the PET/CT
data first independently and then in consensus . […]
For mIF staining, the FFPE sections were baked for 2 h at 60 °C and then
deparaffinized with xylene and rehydrated through decreasing gradient ethanol. Antigen
retrieval was performed in AR6 buffer (Akoya Biosciences) in a microwave oven for 15

The mark [3] stands for this setting: 10 lesions of DLBCL patient No. 32.

T1 sequence (P61073 1-39 limits assumed): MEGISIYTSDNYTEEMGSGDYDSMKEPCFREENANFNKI

As usually defined, the Kd is the free concentration of one partner at which half of the binding sites on the other are occupied at equilibrium, for simple one-to-one binding. `C[C@H](NC(=O)[C@H](CCCNC(=N)N)NC(=O)CCCCCNC(=O)c1ccc(CNC(=O)CN2CCN(CC(=O)O)CCN(CC(=O)O)CC2)cc1)C(=O)N[C@@H]1CSSC(C)(C)[C@@H](C(=O)O)NC(=O)[C@H](Cc2c[nH]cn2)NC(=O)[C@H](Cc2ccc3ccccc3c2)NC(=O)[C@H](CCCNC(=N)N)NC1=O` [NOTA-QHY-04] ({NOTA-4Amb-Ahx}-RA[dC]R[2Nal]H[Pen]-OH; disulfide 3-7): the Kd in data set [1] is 55.2 ± 11.3 nM.
For `OC[C@H]1OC(O)[C@H]([18F])[C@@H](O)[C@@H]1O` (stereo partly shown) [[^18F]FDG], the SUVmax worked out at 8.00 ± 4.57 in data set [2] (setting [3]); 4.1 in data set [2] (bone metastasis of NSCLC patient No. 35); 2.17 in data set [2] (inguinal lymph node of DLBCL patient No. 32); 4.26 in data set [2] (lymph node metastasis of NSCLC patient No. 35); 5.23 in data set [2] (primary lesion of NSCLC patient No. 35). In data set [2] (setting [3]), this molecule registered an SUVmean of 4.39 ± 2.36. The “average T/N (tumor-to-normal brain ratio)” value in data set [2] (SUVmax of tumor / SUVmean of contralateral normal brain, three PCNS DLBCL and one low-grade glioma patient) came to 1.70 ± 0.25. Besides, the “average SUVmax” value in data set [2] (three PCNS DLBCL patients and one low-grade glioma patient imaged with both tracers) is 12.12 ± 2.03.
Consider `C[C@H](NC(=O)[C@H](CCCNC(=N)N)NC(=O)CCCCCNC(=O)c1ccc(CNC(=O)CN2CCN(CC(=O)O)CCN(CC(=O)O)CC2)cc1)C(=O)N[C@@H]1CSSC(C)(C)[C@@H](C(=O)O)NC(=O)[C@H](Cc2c[nH]cn2)NC(=O)[C@H](Cc2ccc3ccccc3c2)NC(=O)[C@H](CCCNC(=N)N)NC1=O` [[^natF]AlF-NOTA-QHY-04] ({NOTA-4Amb-Ahx}-RA[dC]R[2Nal]H[Pen]-OH; disulfide 3-7), for which the Kd in data set [1] is 41.3 ± 5.5 nM.
